Legend:
Assay type in all cases: in vivo
[1] = test system: Abutilon theophrasti; experiment: Pre-emergence herbicidal activity, glasshouse pot test; conditions: pre-emergence spray, rate 1000 g/ha, evaluated after 13 days, scale 0-5
Procedure: (§1) Seeds of a variety of test species were sown in standard soil in pots. After cultivation for one day (pre-emergence) under controlled conditions in a glasshouse (at 24/16° C., day/night; 14 hours light; 65% humidity), the plants were sprayed with an aqueous spray solution derived from the formulation of the technical active ingredient in acetone/water (50:50) solution containing 0.5% Tween 20 (polyoxyethelyene sorbitan monolaurate, CAS RN 9005-64-5). The test plants were then grown in a glasshouse under controlled conditions (at 24/16° C., day/night; 14 hours light; 65% humidity) and watered twice daily. After 13 days, the test was evaluated (5=total damage to plant; 0=no damage to plant).
(§2) ABUTH=Abutilon theophrasti; SOLNI=Solanum nigrum; AMARE=Amaranthus retroflexus; SETFA=Setaria faberi; ALOMY=Alopecurus myosuroides; ECHCG=Echinochloa crus-galli, ZEAMX=zea mays.

[2] = test system: zea mays; experiment: as above; conditions: pre-emergence spray, rate 1000 g/ha, evaluated after 13 days, scale 0-5
Procedure: as §1, §2

[3] = test system: Alopecurus myosuroides; experiment: as above; conditions: pre-emergence spray, rate 1000 g/ha, evaluated after 13 days, scale 0-5
Procedure: as §1, §2

[4] = test system: Setaria faberi; experiment: as above; conditions: pre-emergence spray, rate 1000 g/ha, evaluated after 13 days, scale 0-5
Procedure: as §1, §2

[5] = test system: Echinochloa crus-galli; experiment: as above; conditions: pre-emergence spray, rate 1000 g/ha, evaluated after 13 days, scale 0-5
Procedure: as §1, §2

[6] = test system: Amaranthus retroflexus; experiment: as above; conditions: pre-emergence spray, rate 1000 g/ha, evaluated after 13 days, scale 0-5
Procedure: as §1, §2

[7] = test system: Abutilon theophrasti; experiment: Post-emergence herbicidal activity, glasshouse pot test; set-up: key: 0 = no damage to plant, 5 = total damage to plant; conditions: Application post-emergence, rate 1000 g/ha, evaluated after 13 days
Procedure: (§3) Seeds of a variety of test species were sown in standard soil in pots. After 8 days cultivation (post-emergence) under controlled conditions in a glasshouse (at 24/16° C., day/night; 14 hours light; 65% humidity), the plants were sprayed with an aqueous spray solution derived from the formulation of the technical active ingredient in acetone/water (50:50) solution containing 0.5% Tween 20 (polyoxyethelyene sorbitan monolaurate, CAS RN 9005-64-5). The test plants were then grown in a glasshouse under controlled conditions (at 24/16° C., day/night; 14 hours light; 65% humidity) and watered twice daily. After 13 days, the test was evaluated (5=total damage to plant; 0=no damage to plant).
as §2

[8] = test system: Setaria faberi; experiment: as above; set-up: key: 0 = no damage to plant, 5 = total damage to plant; conditions: Application post-emergence, rate 1000 g/ha, evaluated after 13 days
Procedure: as §3, §2

[9] = test system: Amaranthus retroflexus; experiment: as above; set-up: key: 0 = no damage to plant, 5 = total damage to plant; conditions: Application post-emergence, rate 1000 g/ha, evaluated after 13 days
Procedure: as §3, §2

[10] = test system: zea mays; experiment: as above; set-up: key: 0 = no damage to plant, 5 = total damage to plant; conditions: Application post-emergence, rate 1000 g/ha, evaluated after 13 days
Procedure: as §3, §2

[11] = test system: Alopecurus myosuroides; experiment: as above; set-up: key: 0 = no damage to plant, 5 = total damage to plant; conditions: Application post-emergence, rate 1000 g/ha, evaluated after 13 days
Procedure: as §3, §2

[12] = test system: Echinochloa crus-galli; experiment: as above; set-up: key: 0 = no damage to plant, 5 = total damage to plant; conditions: Application post-emergence, rate 1000 g/ha, evaluated after 13 days
Procedure: as §3, §2

Compound	ABUTH damage score, application pre-emergence [1]	ZEAMX damage score, application pre-emergence [2]	ALOMY damage score, application pre-emergence [3]	SETFA damage score, application pre-emergence [4]	ECHCG damage score, application pre-emergence [5]	AMARE damage score, application pre-emergence [6]	ABUTH herbicidal damage score [7]	SETFA herbicidal damage score [8]	AMARE herbicidal damage score [9]	ZEAMX herbicidal damage score [10]	ALOMY herbicidal damage score [11]	ECHCG herbicidal damage score [12]
1-(6-chloropyrimidin-4-yl)-2-hydroxy-4-methoxy-3-methyl-2H-pyrrol-5-one [CI2]	1	1	2	4	4							
CC1=C(Cl)C(=O)N(c2cc(C(F)(F)F)c(-c3ccc(Cl)cc3)cn2)C1O (stereo not drawn) [AF90]	0	0		3	0	2	4	5	5			
COC1=C(C)C(O)N(c2cc(Cl)c(C(=O)NC(C)(C)C)cn2)C1=O (stereo not drawn) [AI18]			4	5	5	5	5	5	5	4	5	5
COC(=O)c1cnc(N2C(=O)C(OC)=C(C)C2O)cc1Cl (stereo not drawn) [AI21]			0	0	0	5	5	4	5	1	1	3
COC1=C(C)C(O)N(c2cc(C(C)C)c(C(=O)NC(C)(C)C)cn2)C1=O (stereo not drawn) [AI30]	5					5	5	5	5			5
COC1=C(C)C(O)N(c2cc(C)c(C(=O)NC(C)(C)C)cn2)C1=O (stereo not drawn) [AI33]			4	5	4	5	5	5	5	4	5	5
CC1=C(Cl)C(=O)N(c2cc(C(C)C)c(Cl)nn2)C1O (stereo not drawn) [BF15]	4	2	4	5	5	3	5		5	3	5	
COC1=C(C)C(O)N(c2cc(C(C)C)c(Cl)nn2)C1=O (stereo not drawn) [BI28]	4	3	4	5	5	4	5		5	3	5	
COC1=C(C)C(O)N(c2cc(C(C)(C)C)c(Cl)nn2)C1=O (stereo not drawn) [BI32]	4	4	4	5	5	3	5		5	4	5	
CC1=C(Cl)C(=O)N(c2cc(Cl)ncn2)C1O (stereo not drawn) [CF1]	1	2	3	0	4	5	0	1		1	4	4
COC1=C(C)C(O)N(c2cc(C(C)(C)C)ncn2)C1=O (stereo not drawn) [CI1]	5	4	4	5	4	5						
COC1=C(C)C(O)N(c2cc(NC(C)C)ncn2)C1=O (stereo not drawn) [CI4, N2-hydroxy-1-[6-(isopropylamino)pyrimidin-4-yl]-4-methoxy-3-methyl-2H-pyrrol-5-one]	0	0	0	0	0	0						
COC1=C(C)C(O)N(c2cc(C(C)(C)C#N)ncn2)C1=O (stereo not drawn) [CI6]	5	3	3	5	5	5						
COC1=C(C)C(O)N(c2cc(C(C)(C)F)ncn2)C1=O (stereo not drawn) [CI7]	5	1	3	5	4	5						
COC1=C(C)C(O)N(c2cc(C(C)(F)F)ncn2)C1=O (stereo not drawn) [CI8]	5	2	3	5	4	5						
COC1=C(C)C(O)N(c2cc(N(C)C)ncn2)C1=O (stereo not drawn) [CI9]	2	0	1	1	1	3						

Source: US9963445B2, “Chemical compounds” (SYNGENTA PARTICIPATIONS AG, priority 2013, dated 2018)
